Data from PubChem BioAssay (NCI).
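1) Cells in 96-well plates. 2) Compound, 48 h, 5 concentrations. 3) Linear interpolation between surrounding doses. 4) Unreached endpoint = highest concentration. Here, GI50 denotes the concentration required for 50% inhibition of growth. TGI: concentration producing complete growth inhibition.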

Legend:
Experiment in all cases: inhibition of tumour cell growth, NCI panel, 48 h
MDA-MB-435 = tested on: MDA-MB-435
NCI-H460 lung = tested on: NCI-H460 lung
OVCAR-3 ovarian = tested on: OVCAR-3 ovarian
OVCAR-4 ovarian = tested on: OVCAR-4 ovarian
PC-3 prostate = tested on: PC-3 prostate
SK-MEL-5 melanoma = tested on: SK-MEL-5 melanoma
SK-OV-3 ovarian = tested on: SK-OV-3 ovarian
UACC-62 melanoma = tested on: UACC-62 melanoma
UO-31 renal = tested on: UO-31 renal
M14 melanoma = tested on: M14 melanoma

SMILES	GI50 (MDA-MB-435) [µM]	TGI (MDA-MB-435) [µM]	GI50 (NCI-H460 lung) [µM]	TGI (NCI-H460 lung) [µM]	GI50 (OVCAR-3 ovarian) [µM]	TGI (OVCAR-3 ovarian) [µM]	GI50 (OVCAR-4 ovarian) [µM]	TGI (OVCAR-4 ovarian) [µM]	GI50 (PC-3 prostate) [µM]	TGI (PC-3 prostate) [µM]	GI50 (SK-MEL-5 melanoma) [µM]	TGI (SK-MEL-5 melanoma) [µM]	GI50 (SK-OV-3 ovarian) [µM]	TGI (SK-OV-3 ovarian) [µM]	GI50 (UACC-62 melanoma) [µM]	TGI (UACC-62 melanoma) [µM]	GI50 (UO-31 renal) [µM]	TGI (UO-31 renal) [µM]	GI50 (M14 melanoma) [µM]	TGI (M14 melanoma) [µM]
O=C1NC(c2ccccc2)C2(C(=O)O)CN(C3CC3)c3cc(N4CCNCC4)c(F)cc3C2N1 (centres undefined)	> 100	> 100	> 100	> 100	> 100	> 100	> 100	> 100	> 100	> 100	> 100	> 100	> 100	> 100	> 100	> 100	> 100	> 100	–	–
COc1c(N2CCN(CN3C(=O)C(=Nc4ccc(S(=O)(=O)Nc5ncccn5)cc4)c4cc(Cl)ccc43)C(C)C2)c(F)cc2c(=O)c(C(=O)O)cn(C3CC3)c12 (centres undefined)	10.3	21.1	10.9	46	14.3	> 50	–	–	15	> 50	7.99	15.8	40	> 50	13.7	49.9	37.5	> 50	13.8	44.7
C[CH2][Sn]([CH2]C)([O]C(=O)c1ccc(F)cc1)[O]C(=O)c1ccc(F)cc1	–	–	> 100	> 100	> 48	> 82.2	52.4	> 100	–	–	39.6	> 100	> 100	> 100	17.7	36.6	32.8	> 56.3	17.5	33.4
CN(C)CCCNc1nc2ccccc2c2[nH]c3ccccc3c12	1.28	3.89	0.737	3.28	0.66	2.23	–	–	0.897	2.97	3.02	8.33	1.49	6.11	4.01	11.9	1.69	10.9	1.11	2.46
CC[PH+](CC)CC.[Cl][Au]	–	–	16.2	47.9	1.89	3.42	1.47	2.97	–	–	1.14	2.44	16.4	30	1.16	2.63	6.21	10.7	1.17	2.53
O/N=C/c1ccc(O)c(O)c1	–	–	–	> 100	–	> 100	–	> 100	–	–	–	> 100	–	> 100	–	> 100	–	> 100	–	> 100
